This experiment concerns the target mTOR/GbL/Raptor (mTORC1) (Homo sapiens, UniProt P42345). In words: mTOR/GbL/Raptor (mTORC1) ELISA assay. Type of experiment: biochemical. Particulars: phosphorylation of 4E-BP1; 0.2 nM mTORC1, 10 μM ATP; read-out: IC50 in this assay (mTORC1 ELISA). The method, boiled down: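 Human mTORC1 (0.2 nM) phosphorylated 50 nM His-tagged 4E-BP1 with 10 µM ATP in HEPES pH 7.2 containing 10 mM MnCl2, 120 min at ambient temperature. Substrate was captured on Ni-chelate plates; phospho-4E-BP1 was detected by primary antibody and HRP secondary with luminescence.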
As to `CC(C)(O)CC[S+]([O-])c1cc(-c2ccc3c(c2)CN(c2ncnc4c2CC(C)(C)CC4)CCO3)cnc1N` (stereo not shown) [Example 458, 4-({2-amino-5-[4-(6,6-dimethyl-5,6,7,8-tetrahydroquinazolin-4-yl)-2,3,4,5-tetrahydro-1,4-benzoxazepin-7-yl]pyridin-3-yl}sulfinyl)-2-methylbutan-2-ol], the IC50 is 0.05 to 0.25 µM.
`Cc1nc2c(c(N3CCOc4ccc(-c5cnc6nc(C)[nH]c6c5)cc4C3)n1)CC(C)CC2` (stereo not shown) [Example 460, 4-(2,6-dimethyl-5,6,7,8-tetrahydroquinazolin-4-yl)-7-(2-methyl-1H-imidazo[4,5-b]pyridin-6-yl)-2,3,4,5-tetrahydro-1,4-benzoxazepine]: the IC50 lay in the range of 0.01 to 0.05 µM.
In the case of `Cc1nc2ccc(-c3ccc4c(c3)CN(c3nc(CN5CC[C@@H](F)C5)nc5c3CC(C)(C)CC5)CCO4)cc2[nH]1` [Example 461] it was 0.05 to 0.25 µM.
For the compound `Cc1nc2ncc(-c3ccc4c(c3)CN(c3nc(CN5CC[C@@H](F)C5)nc5c3CC(C)(C)CC5)CCO4)cc2[nH]1` [Example 462], the IC50 lay in the range of 0.01 to 0.05 µM.
In the case of `Cc1nc2ccc(-c3ccc4c(c3)CN(c3nc(CN5CC[C@H](F)C5)nc5c3CC(C)(C)CC5)CCO4)cc2[nH]1` [Example 463, 4-(2-{[(3S)-3-fluoropyrrolidin-1-yl]methyl}-6,6-dimethyl-5,6,7,8-tetrahydroquinazolin-4-yl)-7-(2-methyl-1H-benzimidazol-6-yl)-2,3,4,5-tetrahydro-1,4-benzoxazepine] it was 0.05 to 0.25 µM; in that of `Cc1nc2ncc(-c3ccc4c(c3)CN(c3nc(CN5CC[C@H](F)C5)nc5c3CC(C)(C)CC5)CCO4)cc2[nH]1` [Example 464, 4-(2-{[(3S)-3-fluoropyrrolidin-1-yl]methyl}-6,6-dimethyl-5,6,7,8-tetrahydroquinazolin-4-yl)-7-(2-methyl-1H-imidazo[4,5-b]pyridin-6-yl)-2,3,4,5-tetrahydro-1,4-benzoxazepine], 0.01 to 0.05 µM.
The same measure for `C=Cc1nc2c(c(N3CCOc4ccc(-c5cnc6[nH]c(C)nc6c5)cc4C3)n1)CC(C)(C)CC2` [Example 465, 4-(2-ethenyl-6,6-dimethyl-5,6,7,8-tetrahydroquinazolin-4-yl)-7-(2-methyl-3H-imidazo[4,5-b]pyridin-6-yl)-2,3,4,5-tetrahydro-1,4-benzoxazepine]: 0.01 to 0.05 µM.
Take `CNC(=O)c1ccc(-c2ccc3c(c2)CN(c2nc(CN(C)C)nc4c2CC(C)(C)CC4)CCO3)cc1` [Example 466, 4-(4-{2-[(dimethylamino)methyl]-6,6-dimethyl-5,6,7,8-tetrahydroquinazolin-4-yl}-2,3,4,5-tetrahydro-1,4-benzoxazepin-7-yl)-N-methylbenzamide]: the 50% inhibitory concentration (IC50) was 0.05 to 0.25 µM.
On to `Cc1nc2ncc(-c3ccc4c(c3)CN(c3ncnc(C)c3Br)CCO4)cc2[nH]1` [Example 468, 4-(5-bromo-6-methylpyrimidin-4-yl)-7-(2-methyl-1H-imidazao[4,5-b]pyridin-6-yl)-2,3,4,5-tetrahydro-1,4-benzoxazepine], for which the IC50 is 0.05 to 0.25 µM.
For `CCc1c(C)nc(C)nc1N1CCOc2ccc(-c3cnc4nc(C)[nH]c4c3)cc2C1` [Example 469, 4-(5-ethyl-2,6-dimethylpyrimidin-4-yl)-7-(2-methyl-1H-imidazo[4,5-b]pyridin-6-yl)-2,3,4,5-tetrahydro-1,4-benzoxazepine], the half-inhibitory concentration (IC50) is 0.05 to 0.25 µM.
In the case of `CCc1c(C)ncnc1N1CCOc2ccc(-c3cnc4nc(C)[nH]c4c3)cc2C1` [Example 470, 4-(5-ethyl-6-methylpyrimidin-4-yl)-7-(2-methyl-1H-imidazo[4,5-b]pyridin-6-yl)-2,3,4,5-tetrahydro-1,4-benzoxazepine], the half-maximal inhibitory concentration (IC50) lay in the range of 0.05 to 0.25 µM.
`Cc1nc2ncc(-c3ccc4c(c3)CN(c3ncnc5c3CC(F)(F)CC5)CCO4)cc2[nH]1` [Example 471, 4-(6,6-difluoro-5,6,7,8-tetrahydcroquinazolin-4-yl)-7-(2-methyl-1H-imidazo[4,5-b]pyridin-6-yl)-2,3,4,5-tetrahydro-1,4-benzoxazepine]: the IC50 was 0.05 to 0.25 µM.
As to `Cc1nc2ccc(-c3ccc4c(c3)CN(c3nc(-c5ccccn5)nc5c3CC(C)(C)CC5)CCO4)cc2[nH]1` [Example 472, 4-(6,6-dimethyl-2-pyridin-2-yl-5,6,7,8-tetrahydroquinazolin-4-yl)-7-(2-methyl-1H-benzimidazol-6-yl)-2,3,4,5-tetrahydro-1,4-benzoxazepine], the 50% inhibitory concentration (IC50) was in the range of 0.05 to 0.25 µM.
For `Cc1nc2ncc(-c3ccc4c(c3)CN(c3nc(-c5ccccn5)nc5c3CC(C)(C)CC5)CCO4)cc2[nH]1` [Example 473, 4-(6,6-dimethyl-2-pyridin-2-yl-5,6,7,8-tetrahydroquinazolin-4-yl)-7-(2-methyl-1H-imidazo[4,5-b]pyridin-6-yl)-2,3,4,5-tetrahydro-1,4-benzoxazepine], the IC50 lay in the range of 0.01 to 0.05 µM.
Consider `COc1cncc(-c2ccc3c(c2)CN(c2ncnc4c2CC(C)(C)CC4)CCO3)c1` [Example 476, 4-(6,6-dimethyl-5,6,7,8-tetrahydroquinazolin-4-yl)-7-[5-(methyloxy)pyridin-3-yl]-2,3,4,5-tetrahydro-1,4-benzoxazepine], for which the IC50 fell in the range of 0.25 to 1 µM.
On to `CC1(C)CCc2ncnc(N3CCOc4ccc(-c5cnc6nccnc6c5)cc4C3)c2C1` [Example 477, 4-(6,6-dimethyl-5,6,7,8-tetrahydroquinazolin-4-yl)-7-pyrido[2,3-b]pyrazin-7-yl-2,3,4,5-tetrahydro-1,4-benzoxazepine], for which the IC50 fell in the range of 0.25 to 1 µM.
In the case of `Cc1nc2ncc(-c3ccc4c(c3)CN(c3ncnc5c3CC(C)(C)C=C5)CCO4)cc2[nH]1` [Example 478, 4-(6,6-dimethyl-5,6-dihydroquinazolin-4-yl)-7-(2-methyl-1H-imidazo[4,5-b]pyridin-6-yl)-2,3,4,5-tetrahydro-1,4-benzoxazepine] it was not above 0.01 µM; in that of `CC1(C)C=Cc2ncnc(N3CCOc4ccc(-c5ccc(-c6ncc[nH]6)cc5)cc4C3)c2C1` [Example 479, 4-(6,6-dimethyl-5,6-dihydroquinazolin-4-yl)-7-[4-(1H-imidazo-2-yl)phenyl]-2,3,4,5-tetrahydro-1,4-benzoxazepine], not above 0.01 µM; in that of `Cc1nc2ncc(-c3ccc4c(c3)CN(c3ncnc(N5CCC5)c3C)CCO4)cc2[nH]1` [Example 480, 4-(6-azetidin-1-yl-5-methylpyrimidin-4-yl)-7-(2-methyl-1H-imidazo[4,5-b]pyridin-6-yl)-2,3,4,5-tetrahydro-1,4-benzoxazepine], 0.25 to 1 µM.
In the case of `Cc1nc2ncc(-c3ccc4c(c3)CN(c3ncnc(Cl)c3C)CCO4)cc2[nH]1` [Example 481, 4-(6-chloro-5-methylpyrimidin-4-yl)-7-(2-methyl-1H-imidazo[4,5-b]pyridin-6-yl)-2,3,4,5-tetrahydro-1,4-benzoxazepine], the concentration for half-maximal inhibition (IC50) was 0.05 to 0.25 µM.
For the compound `CCC1CCc2nc(C)nc(N3CCOc4ccc(-c5cnc6nc(C)[nH]c6c5)cc4C3)c2C1` (stereo not shown) [Example 482, 4-(6-ethyl-2-methyl-5,6,7,8-tetrahydroquinazolin-4-yl)-7-(2-methyl-1H-imidazo[4,5-b]pyridin-6-yl)-2,3,4,5-tetrahydro-1,4-benzoxazepine], the IC50 was 0.01 to 0.05 µM.
In the case of `CCC1CCc2ncnc(N3CCOc4ccc(-c5cnc6nc(C)[nH]c6c5)cc4C3)c2C1` (stereo not shown) [Example 483, 4-(6-ethyl-5,6,7,8-tetrahydroquinazolin-4-yl)-7-(2-methyl-1H-imidaz[4,5-b]pyridin-6-yl)-2,3,4,5-tetrahydro-1,4-benzoxazepine] it was not above 0.01 µM.
